According to patent US6503912B1, “Substituted guanidine derivatives” (Bayer Aktiengesellschaft, priority 1998, dated 2003):
Values belong to the compound of their own block, whether it stands above or below them.

Experiments:
[1] = tested on: larvae of the army worm (Spodoptera frugiperda); assay: Spodoptera Frugiperda Test; format: in vivo; conditions: active compound concentration 0.1%; dipped cabbage leaves; after 7 days
Method: Spodoptera Frugiperda Test
(§1) Solvent: 7 parts by weight of dimethylformamide
(§2) Emulsifier: 1 part by weight of alkylaryl polyglycol ether
To produce a suitable preparation of active compound, 1 part by weight of active compound is mixed with the stated amounts of solvent and emulsifier, and the concentrate is diluted with water to the desired concentration.
Cabbage leaves (Brassica oleracea) are treated by being dipped into the preparation of active compound of the desired concentration and are populated with larvae of the army worm (Spodoptera frugiperda) whilst the leaves are still moist.
After the desired period of time, the kill in % is determined. 100% means that all larvae have been killed; 0% means that none of the larvae has been killed.

[2] = tested on: Mosquito larvae (Aedes aegypti); assay: Aedes Test; format: in vivo; conditions: active compound concentration 0.0016%; after 4 hours
Method: Solvent: 1000 parts by weight of methanol
To produce a suitable preparation of active compound, 1 part by weight of active compound is mixed with the stated amount of solvent, and the concentrate is diluted with water to the desired concentrations.
Mosquito larvae (Aedes aegypti) are placed into the preparation of active compound of the desired concentration.
After the desired period of time, the effect on the larvae is determined.

[3] = tested on: black bean aphid (Aphis fabae); assay: Aphis Test (Systemic Action); format: in vivo; conditions: active compound concentration 0.01%, watering of Vicia faba, after 4 days
Method: Aphis Test (Systemic Action)
as §1, §2
(§3) To produce a suitable preparation of active compound, 1 part by weight of active compound is mixed with the stated amount of solvent, and the stated amount of emulsifier, and the concentrate is diluted with water to the desired concentration.
Bean plants (Vicia faba) which are heavily infested by the black bean aphid (Aphis fabae) are watered with in each case 20 ml of the preparation of active compound of the desired concentration so that the preparation of active compound penetrates into the soil without wetting the shoot. The active compound is taken up by the roots and passed on to the shoot.
(§4) After the desired period of time, the kill in % is determined. 100% means that all aphids have been killed; 0% means that none of the aphids has been killed.

[4] = tested on: eggs of the onion fly (Hylemyia antiqua); assay: Hylemyia Test; format: in vivo; conditions: active compound concentration 0.05%; artificial feed; after 7 days
Method: (§5) Solvent: 100 parts by weight of acetone
(§6) 1900 parts by weight of methanol
(§7) To produce a suitable preparation of active compound, 1 part by weight of active compound is mixed with the stated amount of solvent, and the concentrate is diluted with methanol to the desired concentration.
A stated amount of the preparation of active compound of the desired concentration is pipetted onto a standardized quantity of artificial feed. After the methanol has evaporated, about 20 eggs of the onion fly (Hylemyia antiqua) are placed on the feed.
After the desired period of time, the kill of the eggs or larvae in % is determined. 100% means that all animals have been killed; 0% means that none of the animals has been killed.

[5] = tested on: larvae of the green rice leaf-hopper (Nephotettix cincticeps); assay: Nephotettix Test; format: in vivo; conditions: active compound concentration 0.1%; dipped rice seedlings; after 6 days
Method: as §1, §2, §3
Rice seedlings (Oryza sativa) are treated by being dipped into the preparation of active compound of the desired concentration and are populated with larvae of the green rice leaf-hopper (Nephotettix cincticeps) while the seedlings are still moist.
After the desired period of time, the kill in % is determined. 100% means that all leaf-hoppers have been killed; 0% means that none of the leaf-hoppers has been killed.

[6] = tested on: mustard beetle larvae (Phaedon cochleariae); assay: Phaedon larvae Test; format: in vivo; conditions: active compound concentration 0.1%; dipped cabbage leaves; after 7 days
Method: as §1, §2
To produce a suitable preparation of active compound, 1 part by weight of active compound is mixed with the stated amount of solvent and the stated amount of emulsifier, and the concentrate is diluted with water to the desired concentration.
Cabbage leaves (Brassica oleracea) are treated by being dipped into the preparation of active compound of the desired concentration and are populated with mustard beetle larvae (Phaedon cochleariae) whilst the leaves are still moist.
After the desired period of time, the kill in % is determined. 100% means that all beetle larvae have been killed; 0% means that none of the beetle larvae has been killed.

[7] = tested on: larva (L2-L3) of the army worm (Spodoptera frugiperda); assay: Spodoptera Frugiperda Test/artificial Feed; format: in vivo; conditions: active compound concentration 0.05%; artificial feed; after 7 days
Method: Spodoptera Frugiperda Test/arfificial Feed
as §5, §6, §7
A stated amount of the preparation of active compound of the desired concentration is pipetted onto a standardized quantity of artificial feed. After the methanol has evaporated, in each case one larva (L2-L3) of the army worm (Spodoptera frugiperda) is placed onto the feed, in 3 repetitions.
After the desired period of time, the kill in % is determined. 100% means that all animals have been killed; 0% means that none of the animals has been killed.

[8] = tested on: Aphis fabae; assay: Critical Concentration Test/root-systemic Action; format: in vivo; conditions: 20 ppm in soil; broad beans; leaves populated after 7 days, evaluation after a further 6 days
Method: Critical Concentration Test/root-systemic Action
Solvent: 4 parts by weight of acetone
as §2
To produce a suitable preparation of active compound, 1 part by weight of active compound is mixed with the stated amount of solvent, the stated amount of emulsifier is added and the concentrate is diluted with water to the desired concentration.
The preparation of active compound is mixed intimately with soil. The concentration of the active compound in the preparation is virtually immaterial, only the amount by weight of active compound per volume unit of soil, which is stated in ppm (=mg/l), matters. The treated soil is filled into pots which are planted with pregerminated broad beans. Thus, the active compound can be taken up from the soil by the plant roots and transported into the leaves.
After a further 6 days, evaluation is carried out by counting or estimating the dead animals. The root-systemic action of the active compound is deduced from the number of animals killed. It is 100% when all test animals have been killed and 0% when the number of live test insects is identical to that of the untreated control.

[9] = not given; remark: listed apart in the source
[10] = tested on: Lucilia cuprina larvae; assay: Blowfly Larvae Test/development-inhibitory Action; format: in vivo; conditions: active compound concentration 100 ppm; flies hatched after 1.5 times the development period of untreated control
Method: Blowfly Larvae Test/development-inhibitory Action
Test animals: Lucilia cuprina larvae
Solvent: Dimethyl sulfoxide
20 mg of active compound are dissolved in 1 ml of dimethyl sulfoxide, more dilute concentrations are prepared by dilution with Dest.H2O.
About 20 Lucilia cuprina larvae are introduced into a test tube which contains about 1 cm^3 of horse meat and 0.5 ml of the preparation of active compound to be tested. After 24 hours and 48 hours, the effectiveness of the preparation of active compound is determined. The test tubes are transferred into beakers whose bottom is covered with sand. After a further 2 days, the test tubes are removed and the pupae are counted.
The effect of the preparation of active compound is assessed by the number of flies which have hatched after 1.5 times the development period of an untreated control. 100% means that no flies have hatched; 0% means that all flies have hatched normally.

[11] = tested on: peach aphid (Myzus persicae); assay: Myzus Test; format: in vivo; conditions: active compound concentration 0.1%; dipped cabbage leaves; after 6 days
Method: as §1, §2, §3
Cabbage leaves (Brassica oleracea) which are heavily infested by the peach aphid (Myzus persicae) are treated by being dipped into the preparation of active compound of the desired concentration.
as §4

melting point: 85 to 87 °C
SMILES: CC(C)OCN1CCN(Cc2ccc(Cl)nc2)C1=NC#N

melting point: 90 to 92 °C
SMILES: O=[N+]([O-])/N=c1\n(COCCBr)ccn1Cc1ccc(Cl)nc1

SMILES: CCCOCN1CCN(Cc2cnc(Cl)s2)C1=N[N+](=O)[O-] [Example 2, 1-(2-chloro-thiazol-5-yl-methyl)-2-nitroimino-3-n-propoxymethyl-imidazolidine]
kill [1]: 100%

SMILES: CCOCN1CCN(Cc2ccc(Cl)nc2)C1=N[N+](=O)[O-] [Example 4]
kill [2]: 100%
kill [3]: 100%
kill of the eggs or larvae [4]: 100%
kill [5]: 100%
kill [6]: 100%
kill [7]: 100%
kill (root-systemic action) [8]: 100%

SMILES: CCCCCCCCOCN1CCN(Cc2ccc(Cl)nc2)C1=N[N+](=O)[O-] [Example 5]
kill [2]: 100%
kill [3]: 95%
kill (root-systemic action) [8]: 100%
logP (pH = 2.3) [9]: 3.55

SMILES: CCOCn1ccn(Cc2ccc(Cl)nc2)c1=N[N+](=O)[O-] [Example 6]
logP (pH = 2.3) [9]: 1.09

SMILES: CCCCCCCCOCn1ccn(Cc2ccc(Cl)nc2)c1=N[N+](=O)[O-] [Example 7]
kill [2]: 100%

SMILES: COCn1ccn(Cc2ccc(Cl)nc2)c1=N[N+](=O)[O-] [Example 9]
kill [3]: 100%
development-inhibitory effect [10]: 100%
logP (pH = 2.3) [9]: 0.78

SMILES: CCCOCN1CCN(Cc2ccc(Cl)nc2)C1=N[N+](=O)[O-] [Example 10]
kill [11]: 100%
kill [5]: 100%
kill [6]: 100%
kill [1]: 100%
development-inhibitory effect [10]: 100%
logP (pH = 2.3) [9]: 1.64

SMILES: CCCOCn1ccn(Cc2ccc(Cl)nc2)c1=N[N+](=O)[O-] [Example 11]
kill [11]: 100%
development-inhibitory effect [10]: 100%

SMILES: CC(C)OCN1CCN(Cc2ccc(Cl)nc2)C1=N[N+](=O)[O-] [Example 12]
kill [11]: 100%
kill [5]: 100%
kill [6]: 100%
kill [1]: 100%
development-inhibitory effect [10]: 100%

SMILES: CC(C)COCN1CCN(Cc2ccc(Cl)nc2)C1=N[N+](=O)[O-] [Example 13]
kill [11]: 100%
kill [5]: 100%
kill [1]: 100%
development-inhibitory effect [10]: 100%
logP (pH = 2.3) [9]: 2.00

SMILES: CC(C)OCn1ccn(Cc2ccc(Cl)nc2)c1=N[N+](=O)[O-] [Example 14]
kill [11]: 100%
kill [5]: 100%

SMILES: CC(C)COCn1ccn(Cc2ccc(Cl)nc2)c1=N[N+](=O)[O-] [Example 15]
kill [11]: 100%
kill [5]: 100%

SMILES: COCN1CCN(Cc2cnc(Cl)s2)C1=N[N+](=O)[O-] [Example 16]
kill [11]: 100%
logP (pH = 2.3) [9]: 1.14

SMILES: CCOCN1CCN(Cc2cnc(Cl)s2)C1=N[N+](=O)[O-] [Example 17]
kill [11]: 100%
kill [6]: 100%
kill [1]: 100%
logP (pH = 2.3) [9]: 1.40

SMILES: CC(C)OCN1CCN(Cc2cnc(Cl)s2)C1=N[N+](=O)[O-] [Example 18]
kill [11]: 100%
kill [5]: 100%
kill [6]: 100%
kill [1]: 100%
logP (pH = 2.3) [9]: 1.65

SMILES: CC(C)COCN1CCN(Cc2cnc(Cl)s2)C1=N[N+](=O)[O-] [Example 19]
kill [5]: 100%
kill [6]: 100%
logP (pH = 2.3) [9]: 2.12

SMILES: CC(C)(C)COCN1CCN(Cc2ccc(Cl)nc2)C1=N[N+](=O)[O-] [Example 20]
kill [11]: 100%
kill [1]: 100%

SMILES: CCC(C)OCN1CCN(Cc2ccc(Cl)nc2)C1=N[N+](=O)[O-] (centres unmarked) [Example 21]
kill [5]: 100%
kill [6]: 100%
logP (pH = 2.3) [9]: 1.86

SMILES: CCCCCOCN1CCN(Cc2ccc(Cl)nc2)C1=N[N+](=O)[O-] [Example 22]
logP (pH = 2.3) [9]: 2.35

SMILES: CCCCCCOCN1CCN(Cc2ccc(Cl)nc2)C1=N[N+](=O)[O-] [Example 23]
logP (pH = 2.3) [9]: 2.73

SMILES: COCCOCN1CCN(Cc2ccc(Cl)nc2)C1=N[N+](=O)[O-] [Example 24]
kill [5]: 100%
logP (pH = 2.3) [9]: 1.16

SMILES: CC(C)(C)C(=O)OCN1CCN(Cc2ccc(Cl)nc2)C1=N[N+](=O)[O-] [Example 25]
kill [11]: 100%
kill [5]: 100%
kill [6]: 100%
kill [1]: 100%

SMILES: COCN1CCN(Cc2ccc(Cl)nc2)C1=NC#N [Example 29]
logP (pH = 2.3) [9]: 1.32

SMILES: COCCOCN1CCN(Cc2ccc(Cl)nc2)C1=NC#N [Example 31]
logP (pH = 2.3) [9]: 1.40

SMILES: CCCOCN1CCN(Cc2ccc(Cl)nc2)C1=NC#N [Example 32]
logP (pH = 2.3) [9]: 1.89

SMILES: CC(=O)OCN1CCN(Cc2ccc(Cl)nc2)C1=N[N+](=O)[O-] [Example 33]
kill [5]: 100%
kill [6]: 100%
kill [1]: 100%

SMILES: CCC(=O)OCN1CCN(Cc2ccc(Cl)nc2)C1=N[N+](=O)[O-] [Example 35]
kill [6]: 100%
kill [1]: 100%
logP (pH = 2.3) [9]: 1.50

SMILES: CC(C)C(=O)OCN1CCN(Cc2ccc(Cl)nc2)C1=N[N+](=O)[O-] [Example 36]
kill [11]: 100%
kill [5]: 100%
kill [6]: 100%
kill [1]: 100%

SMILES: CCCCOCN1CCN(Cc2ccc(Cl)nc2)C1=N[N+](=O)[O-] [Example 40]
logP (pH = 2.3) [9]: 1.98

SMILES: CCCCOCn1ccn(Cc2ccc(Cl)nc2)c1=N[N+](=O)[O-] [Example 41]
logP (pH = 2.3) [9]: 1.72

SMILES: CCN(CC)CCOCN1CCN(Cc2ccc(Cl)nc2)C1=N[N+](=O)[O-] [Example 43]
logP (pH = 2.3) [9]: 0.70

SMILES: O=[N+]([O-])N=C1N(COCCBr)CCN1Cc1ccc(Cl)nc1 [Example 53]
logP (pH = 2.3) [9]: 1.64

SMILES: CC(C)OCN1CCCN(Cc2ccc(Cl)nc2)C1=N[N+](=O)[O-] [Example 56]
logP (pH = 2.3) [9]: 1.34
